Paper PMC6479099, “Aminoguanidines: New leads for treatment of Giardia duodenalis infection” (International Journal for Parasitology: Drugs and Drug …, 2019)

System: Giardia BAH2c2 trophozoites
Experiment: Electron microscopy (TEM, SEM) of trophozoites
Type: cell-based, Giardia duodenalis
Protocol: To determine any effects robenidine has on the ultrastructure of Giardia trophozoites, transmission electron microscopy (TEM) was performed. Giardia BAH2c2 trophozoites were exposed to 3 X IC50 of robenidine or metronidazole for 1 h and placed on ice for 40 min to detach trophozoites then washed twice with PBS (900×g, 10 min 4 °C) and fixed with a combination of glutaraldehyde and formaldehyde overnight. Cells were washed with PBS +4% sucrose before fixation with osmium tetroxide for 1 h. Samples were dehydrated through a graded ethanol series (70–100%) followed by suspension in propylene oxide for ten minutes. Samples were centrifuged and suspended in 1:1 mixture of propylene oxide and epoxy resin for an hour before centrifugation. Following overnight suspension in 100% epoxy resin samples were resuspended in fresh resin and polymerized at 70 °C for 24 h. After sectioning samples were stained with uranyl acetate and lead citrate. Sections were imaged with a FEI tecnai G2 Spirit Transmission Electron microscope (Adelaide Microscopy, University of Adelaide).
To determine the effect that robenidine and metronidazole has on the cell surface of the Giardia trophozoites, scanning electron microscopy (SEM) was performed as follows. Giardia BAH2c2 trophozoites were prepared as for TEM, however they were exposed to compounds for 2 or 4 h. […]

Compound: N=C(N/N=C/c1ccc(Cl)cc1)N/N=C/c1ccc(Cl)cc1 [Robenidine, robenidine]
- Ultrastructural changes by TEM (3 x IC50, 1 h exposure): extreme membrane blebbing
- Cell surface changes by SEM (3 x IC50, 2 h exposure): extreme membrane blebbing
